ChEMBL document CHEMBL1201862, “PubChem BioAssay data set” (2004)
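Protocol summary: plate cells (96-well), add compound at 5 concentrations, incubate 48 h, interpolate endpoints linearly. GI50: concentration for 50% inhibition of growth.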 Activity calls are given as the source filed them. No stated cut-off is given here; in the data, active = GI50 up to about 1.1 µM and inactive = higher.

What was measured:
Experiment in all cases: growth of human tumour cells (NCI), 48 h
SK-MEL-5 = tested on: SK-MEL-5
HOP-92 = tested on: HOP-92
UACC-257 = tested on: UACC-257
SF-295 = tested on: SF-295
A549 = tested on: A549
HT-29 = tested on: HT-29
UO-31 = tested on: UO-31
NCI-H460 = tested on: NCI-H460
HCT-15 = tested on: HCT-15
CCRF-CEM = tested on: CCRF-CEM
LOX IMVI = tested on: LOX IMVI
SN12C = tested on: SN12C
COLO 205 = tested on: COLO 205
TK-10 = tested on: TK-10
EKVX = tested on: EKVX
KM12 = tested on: KM12
HCC 2998 = tested on: HCC 2998
SK-OV-3 = tested on: SK-OV-3
RXF 393 = tested on: RXF 393
SNB-75 = tested on: SNB-75

CC(C)(C)OC(=O)NC(Cc1c[nH]cn1)C(=O)N1CCCC1C(N)=O (stereo not drawn)
GI50 (SK-MEL-5): > 100 µM (inactive) | GI50 (HOP-92): > 100 µM (inactive) | GI50 (UACC-257): > 100 µM (inactive) | GI50 (SF-295): > 100 µM (inactive) | GI50 (A549): > 100 µM (inactive) | GI50 (HT-29): > 100 µM (inactive) | GI50 (UO-31): > 100 µM (inactive) | GI50 (NCI-H460): > 100 µM (inactive) | GI50 (HCT-15): > 100 µM | GI50 (CCRF-CEM): > 100 µM (inactive) | GI50 (LOX IMVI): > 100 µM (inactive) | GI50 (SN12C): > 100 µM (inactive) | GI50 (COLO 205): > 100 µM (inactive) | GI50 (TK-10): > 100 µM (inactive) | GI50 (EKVX): > 100 µM (inactive) | GI50 (KM12): > 100 µM (inactive) | GI50 (HCC 2998): > 100 µM (inactive) | GI50 (SK-OV-3): > 100 µM (inactive) | GI50 (RXF 393): 2.17 µM (inactive) | GI50 (SNB-75): > 100 µM (inactive)

O=C(Nc1cccc2ccccc12)Oc1ccccc1C1CCCCC1
GI50 (SK-MEL-5): 15.5 µM (inactive) | GI50 (HOP-92): 15.8 µM (inactive) | GI50 (UACC-257): 15.5 µM (inactive) | GI50 (SF-295): 16.3 µM (inactive) | GI50 (A549): 21.4 µM (inactive) | GI50 (HT-29): 18.2 µM (inactive) | GI50 (UO-31): 16.1 µM (inactive) | GI50 (NCI-H460): 18.5 µM (inactive) | GI50 (HCT-15): 17.2 µM | GI50 (CCRF-CEM): 15 µM (inactive) | GI50 (LOX IMVI): 16.3 µM (inactive) | GI50 (SN12C): 16 µM (inactive) | GI50 (COLO 205): > 10 µM (inactive) | GI50 (TK-10): 23 µM (inactive) | GI50 (EKVX): 22.6 µM (inactive) | GI50 (KM12): 20.2 µM (inactive) | GI50 (HCC 2998): 18.5 µM (inactive) | GI50 (SK-OV-3): 30.8 µM (inactive) | GI50 (RXF 393): 15 µM (inactive) | GI50 (SNB-75): 13.9 µM (inactive)

CC(C)CNC1=NCC(C)S1 (stereo not drawn)
GI50 (SK-MEL-5): > 100 µM (inactive) | GI50 (HOP-92): > 100 µM (inactive) | GI50 (UACC-257): > 100 µM (inactive) | GI50 (SF-295): > 100 µM (inactive) | GI50 (A549): > 100 µM (inactive) | GI50 (HT-29): > 100 µM (inactive) | GI50 (UO-31): 79.3 µM (inactive) | GI50 (NCI-H460): > 100 µM (inactive) | GI50 (HCT-15): > 100 µM | GI50 (CCRF-CEM): > 100 µM (inactive) | GI50 (LOX IMVI): > 100 µM (inactive) | GI50 (COLO 205): > 100 µM (inactive) | GI50 (TK-10): > 100 µM (inactive) | GI50 (EKVX): > 100 µM (inactive) | GI50 (KM12): > 100 µM (inactive) | GI50 (HCC 2998): > 100 µM (inactive) | GI50 (SK-OV-3): > 100 µM (inactive) | GI50 (RXF 393): > 100 µM (inactive) | GI50 (SNB-75): > 100 µM (inactive)

O=C(O)CN1CCN(CC(=O)O)CCN(CC(=O)O)CC1
GI50 (SK-MEL-5): 2.79 µM (inactive) | GI50 (HOP-92): 38.2 µM (inactive) | GI50 (UACC-257): 58.7 µM (inactive) | GI50 (SF-295): 37.5 µM (inactive) | GI50 (A549): 3.03 µM (inactive) | GI50 (HT-29): 3.55 µM (inactive) | GI50 (UO-31): 83.8 µM (inactive) | GI50 (NCI-H460): 3.49 µM (inactive) | GI50 (HCT-15): 4.53 µM | GI50 (CCRF-CEM): 3.91 µM (inactive) | GI50 (LOX IMVI): > 24.1 µM (inactive) | GI50 (SN12C): > 100 µM (inactive) | GI50 (COLO 205): 2.57 µM (inactive) | GI50 (TK-10): > 48.8 µM (inactive) | GI50 (EKVX): 59.2 µM (inactive) | GI50 (KM12): 5.81 µM (inactive) | GI50 (HCC 2998): 3.15 µM (inactive) | GI50 (SK-OV-3): 8.38 µM (inactive) | GI50 (RXF 393): 5.64 µM (inactive) | GI50 (SNB-75): 12.6 µM (inactive)

C=C(/C=C/C=C(\C)CCC=C(C)C)[C@@H]1CC[C@]2([C@H](CCCO)/C(=C(/C)C=O)CC[C@]2(C)O)[C@@H]1O
GI50 (SK-MEL-5): 22.6 µM (inactive) | GI50 (HOP-92): < 0.01 µM (active) | GI50 (UACC-257): 22.6 µM (inactive) | GI50 (SF-295): 15.6 µM (inactive) | GI50 (A549): 13.3 µM (inactive) | GI50 (HT-29): 15.8 µM (inactive) | GI50 (UO-31): 19.5 µM (inactive) | GI50 (NCI-H460): 9.71 µM (inactive) | GI50 (HCT-15): 19.4 µM | GI50 (CCRF-CEM): 15.8 µM (inactive) | GI50 (LOX IMVI): 14.7 µM (inactive) | GI50 (SN12C): 17.1 µM (inactive) | GI50 (COLO 205): 11 µM (inactive) | GI50 (TK-10): 31.3 µM (inactive) | GI50 (EKVX): 22.4 µM (inactive) | GI50 (KM12): 1.41 µM (inactive) | GI50 (HCC 2998): 20.9 µM (inactive) | GI50 (SK-OV-3): > 100 µM (inactive) | GI50 (RXF 393): 22.6 µM (inactive) | GI50 (SNB-75): 91.6 µM (inactive)

C=C1C(=O)OC2C=C(C)CC3C=C(CCC=C(C)CCC12)C(=O)O3 (stereo not drawn)
GI50 (SK-MEL-5): 67.9 µM (inactive) | GI50 (HOP-92): 52.8 µM (inactive) | GI50 (UACC-257): 43.1 µM (inactive) | GI50 (SF-295): 79.4 µM (inactive) | GI50 (A549): 99.3 µM (inactive) | GI50 (HT-29): 67 µM (inactive) | GI50 (UO-31): 105 µM (inactive) | GI50 (NCI-H460): 67.5 µM (inactive) | GI50 (HCT-15): 56.6 µM | GI50 (CCRF-CEM): 16.5 µM (inactive) | GI50 (LOX IMVI): 32.5 µM (inactive) | GI50 (SN12C): 69 µM (inactive) | GI50 (COLO 205): 53.1 µM (inactive) | GI50 (EKVX): 62.4 µM (inactive) | GI50 (KM12): 52.7 µM (inactive) | GI50 (HCC 2998): 58.7 µM (inactive) | GI50 (SK-OV-3): 121 µM (inactive) | GI50 (RXF 393): 31.3 µM (inactive) | GI50 (SNB-75): 92.5 µM (inactive)
